Experiments:
[1] = refractive index (Na D-line) (dimensionless); xn = mol fraction of the nth substance listed; details: 100.8 kPa, Liquid, Standard Abbe refractometry
[2] = xn = mol fraction of the nth substance listed; details: 288.15 K, 100.8 kPa, Liquid

CC1CCCCC1 [methylcyclohexane] + CCO
refractive index, [1]
Details	288.15 K	298.15 K	308.15 K
x2 = 0	1.42578	1.42053	1.41537
x2 = 0.05	1.42405	1.41871	1.41358
x2 = 0.1	1.42223	1.4169	1.41176
x2 = 0.15	1.42037	1.41505	1.40993
x2 = 0.2	1.41843	1.41313	1.40802
x2 = 0.25	1.41639	1.41112	1.40603
x2 = 0.3	1.41426	1.40902	1.40396
x2 = 0.35	1.41199	1.40679	1.40175
x2 = 0.4	1.4096	1.40442	1.39942
x2 = 0.45	1.40706	1.40192	1.39695
x2 = 0.5	1.40437	1.39927	1.39433
x2 = 0.55	1.4015	1.39644	1.39153
x2 = 0.6	1.39844	1.39343	1.38856
x2 = 0.65	1.39516	1.3902	1.38538
x2 = 0.7	1.39166	1.38674	1.38197
x2 = 0.75	1.38785	1.38298	1.37827
x2 = 0.8	1.38377	1.37896	1.37432
x2 = 0.85	1.37933	1.37459	1.37001
x2 = 0.9	1.37449	1.36985	1.36536
x2 = 0.95	1.36921	1.36474	1.36042

[2]
Details	mass density [kg/m3]	viscosity [mPa·s]
x2 = 0	773.4	0.784
x2 = 0.05	773.4	0.771
x2 = 0.1	773.4	0.769
x2 = 0.15	773.7	0.77
x2 = 0.2	774	0.779
x2 = 0.25	774.3	0.793
x2 = 0.3	774.7	0.811
x2 = 0.35	775.1	0.831
x2 = 0.4	775.7	0.853
x2 = 0.45	776.3	0.877
x2 = 0.5	777	0.902
x2 = 0.55	777.8	0.928
x2 = 0.6	778.7	0.955
x2 = 0.65	779.6	0.983
x2 = 0.7	780.8	1.012

— the NIST ThermoML archive (doi:10.1021/je050031f)
